From PubChem BioAssay AID1205 (EPA DSSTox, 2008)
Calls of active or inactive are those of the source.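 The calls were made as follows: active = tumour findings in long-term animal cancer tests in more than one sex, species or organ; inactive = no tumour finding and more than one negative test.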 Where a SMILES comes first, the peptide text is derived from it.

assay: DSSTox (CPDBAS) Carcinogenic Potency Database Summary MultiCellCall Results; conditions: animal carcinogenicity bioassays, multi-cell call summary
From the text: The Carcinogenic Potency Database (CPDB) is a unique and widely used international resource of the results of over 6500 chronic, long-term animal cancer tests on over 1500 chemical substances. The CPDB provides easy access to the bioassay literature, with qualitative and quantitative analyses of both positive and negative experiments that have been published over the past 50 years in the general literature and by the National Cancer Institute/National Toxicology Program. The CPDB standardizes the diverse literature of cancer bioassays that vary widely in protocol, histopathological examination and nomenclature, and in the published author's choices of what information to provide in their papers. Results are reported in the CPDB for tests in rats, mice, hamsters, dogs, and nonhuman primates, and are based on the most positive result among all experiments for each sex-species. The DSSTox CPDBAS (all species) file incorporates data from the CPDB Summary Tables for the full list of over 1500 chemical substances tested in at least one species. A summary MultiCellCall, based on experimental bioassay results of one or more species, is provided in the DSSTox CPDBAS file (see Source URL) for more than 1150 chemical substances.
Associated TD50 values and tumor site details for the relevant species/sex experiment supporting the overall CPDBAS MultiSiteCall are provided in the full DSSTox CPDBAS file (see Comment) and the corresponding CPDBAS Species Bioassay in PubChem. ActivityScore is computed as follows: multispecies=50, multisex=30, multisite=20, with combination scores computed as sums of these values, e.g. multispecies+multisite=70.

SMILES	outcome
FC(Cl)(Cl)Cl	inactive; multisex inactive; multispecies inactive
O=[N+]([O-])c1ccc(Cl)c([N+](=O)[O-])c1	inactive; multisex inactive; multispecies inactive
CC(/C=C/C=C(\C)C(=O)O[C@@H]1O[C@H](CO[C@@H]2O[C@H](CO)[C@@H](O)[C@H](O)[C@H]2O)[C@@H](O)[C@H](O)[C@H]1O)=C\C=C\C=C(C)\C=C\C=C(/C)C(=O)O[C@@H]1O[C@H](CO[C@@H]2O[C@H](CO)[C@@H](O)[C@H](O)[C@H]2O)[C@@H](O)[C@H](O)[C@H]1O	inactive; multisex inactive
CC(C(O)c1ccccc1)N(C)N=O (stereo not given)	active; multisite active
ClCc1ccccn1	inactive; multisex inactive; multispecies inactive
Nc1ccc(Nc2ccccc2)cc1	inactive; multisex inactive; multispecies inactive
O=NN1CC=CCC1	active; multisite active
CC(C)(c1ccc(O)cc1)c1ccc(O)cc1	inactive; multisex inactive; multispecies inactive
C[C@@H]1O[C@@]2(CS1)CN1CCC2CC1	inactive; multisex inactive
COc1c(Cl)c(Cl)c([N+](=O)[O-])c(Cl)c1Cl	inactive; multisex inactive; multispecies inactive
ClCCl	active; multisite active; multisex active; multispecies active
CC(N)Cc1ccccc1 (stereo not given)	inactive; multisex inactive; multispecies inactive
Oc1ccc(O)cc1	active; multisite active; multisex active; multispecies active
Nc1c(Cl)cc(Cl)cc1Cl	active; multisite active
IC(I)I	inactive; multisex inactive; multispecies inactive
CCCCCCCCCC[N+](C)(C)[O-]	inactive; multisex inactive
CCOC(=O)C(C)(C)Oc1ccc(Cl)cc1	active; multisite active
O.O.O.O.O.O.O.O.O=S(=O)([O-])[O-].O=S(=O)([O-])[O-].O=S(=O)([O-])[O-].[Cd+2].[Cd+2].[Cd+2]	inactive; multispecies inactive

SMILES	outcome
CC(=O)CN(CC(O)CO)N=O (stereo not given)	active; multisite active; multispecies active
Cc1nc(N)cc2[nH]c3ccccc3c12	active; multisite active; multisex active; multispecies active
O=NN1CCCC1	active; multisite active; multisex active; multispecies active
C=C1C[C@@]23CC[C@H]4[C@@](C)(CCC[C@@]4(C)C(=O)O[C@@H]4O[C@H](CO)[C@@H](O)[C@H](O)[C@H]4O)[C@@H]2CC[C@]1(O[C@@H]1O[C@H](CO)[C@@H](O)[C@H](O)[C@H]1O[C@@H]1O[C@H](CO)[C@@H](O)[C@H](O)[C@H]1O)C3	inactive; multisex inactive
COC(=O)[C@H](Cc1ccccc1)NC(=O)[C@@H](N)CC(=O)O (H-Asp-Phe-OMe)	inactive; multisex inactive
NC(=O)Cc1c([O-])on[n+]1Cc1ccccc1	active; multisex active; multispecies active
CC(C)C(C(=O)OC(C#N)c1cccc(Oc2ccccc2)c1)c1ccc(Cl)cc1 (stereo not given)	inactive; multisex inactive; multispecies inactive
O=C(O)c1ccccc1	inactive; multisex inactive; multispecies inactive
NC(N)=NC(N)=NCCc1ccccc1	inactive; multisex inactive; multispecies inactive
CN(N=O)C1=Nc2ccc(Cl)cc2C(c2ccccc2)=[N+]([O-])C1	inactive; multisex inactive
COS(C)(=O)=O	active; multisite active
c1ccc2c(c1)Nc1ccccc1S2	inactive; multisex inactive
CC(=O)c1ccc(S(=O)(=O)NC(=O)NC2CCCCC2)cc1	inactive; multisex inactive; multispecies inactive
Clc1c(Cl)c(Cl)c(Cl)c(Cl)c1Cl	active; multisite active; multisex active; multispecies active
COc1ccc([N+](=O)[O-])cc1N=Nc1c(O)c(C(=O)Nc2cccc([N+](=O)[O-])c2)cc2ccccc12	inactive; multisex inactive; multispecies inactive
[Cl-].[Cl-].[Cl-].[Fe+3]	inactive; multisex inactive
CCOC(=O)N(C)N=O	active; multisite active
